{
  "source": "patent US8133887B2",
  "about": "“Oxaphenanthrene derivatives” (Merck Patent GmbH, priority 2005, dated 2012)",
  "key": {"human CB1 receptor": {"target": "human CB1 receptor (Homo sapiens, UniProt P21554)", "sequence (P21554 whole entry)": "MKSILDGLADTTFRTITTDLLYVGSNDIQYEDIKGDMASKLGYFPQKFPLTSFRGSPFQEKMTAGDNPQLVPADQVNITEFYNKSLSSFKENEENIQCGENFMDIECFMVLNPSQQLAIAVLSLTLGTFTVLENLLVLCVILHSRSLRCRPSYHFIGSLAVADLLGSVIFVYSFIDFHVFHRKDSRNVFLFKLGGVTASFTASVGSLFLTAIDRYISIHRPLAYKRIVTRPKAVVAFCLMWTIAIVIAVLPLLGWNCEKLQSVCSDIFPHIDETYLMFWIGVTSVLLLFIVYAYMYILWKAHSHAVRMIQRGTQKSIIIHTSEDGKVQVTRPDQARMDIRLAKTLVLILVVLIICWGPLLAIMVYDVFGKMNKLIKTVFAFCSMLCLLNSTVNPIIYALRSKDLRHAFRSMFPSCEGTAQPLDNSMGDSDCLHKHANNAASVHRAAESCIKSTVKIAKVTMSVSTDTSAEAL", "assay": "CB1 (h) receptor ligand binding (competition)", "text": "(§1) The specific ligand binding to the receptors is defined as the difference between complete binding and non-specific binding determined in the presence of an excess of unlabelled ligand (see, for example, MUNRO, S., THOMAS, K. L. and ABU-SHAAR, M. (1993), Molecular characterisation of a peripheral receptor for cannabinoids.\n(§2) The IC50 values (concentration necessary for half-maximum inhibition of the specific control binding) and Hill coefficients (nH) are obtained by non-linear regression analyses of the competition curves, with the curve matching being carried out in accordance with the Hill equation.\n(§3) The inhibition constants (Ki) are calculated in accordance with the Cheng Prusoff equation (Ki=IC50/1+(L/KD))."}, "human CB2 receptor": {"target": "human CB2 receptor (Homo sapiens, UniProt P34972)", "sequence (P34972 whole entry)": "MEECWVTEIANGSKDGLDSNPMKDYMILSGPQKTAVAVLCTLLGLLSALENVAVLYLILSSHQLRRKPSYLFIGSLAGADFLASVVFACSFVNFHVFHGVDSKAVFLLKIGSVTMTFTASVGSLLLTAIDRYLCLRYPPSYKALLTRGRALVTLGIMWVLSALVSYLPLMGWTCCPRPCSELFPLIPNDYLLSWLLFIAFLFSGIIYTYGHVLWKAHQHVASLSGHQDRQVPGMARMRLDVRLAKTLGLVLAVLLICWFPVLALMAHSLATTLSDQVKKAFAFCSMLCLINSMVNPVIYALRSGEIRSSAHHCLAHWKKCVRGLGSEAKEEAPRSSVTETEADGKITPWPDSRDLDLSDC", "assay": "CB2 (h) receptor ligand binding (competition)", "text": "as §1, §2, §3"}, "[1]": {"details": "calculated by Cheng Prusoff equation"}, "[2]": {"details": "half-maximum inhibition of specific control binding"}, "[3]": {"details": "non-linear regression of competition curve"}},
  "data": [
    {"molecule": "CCCCCc1cc(O)c2c(c1)OC(F)(F)C1CCCCC21", "note": "(stereo not drawn) [Compound Ia]", "values": [
      {"measurement": "Ki", "setting": "human CB1 receptor; [1]", "result": 1900, "unit": "nM"},
      {"measurement": "IC50", "setting": "human CB1 receptor; [2]", "result": 2200, "unit": "nM"},
      {"measurement": "nH (Hill coefficient)", "setting": "human CB1 receptor; [3]", "result": 1.5},
      {"measurement": "Ki", "setting": "human CB2 receptor; [1]", "result": 920, "unit": "nM"},
      {"measurement": "IC50", "setting": "human CB2 receptor; [2]", "result": 1400, "unit": "nM"},
      {"measurement": "nH (Hill coefficient)", "setting": "human CB2 receptor; [3]", "result": 0.9}
    ]}
  ]
}
